SMILES strings stand for the structures. A value given as a limit tells only on which side of the number the result lay.

Assay [1] has as its target T1, baculovirus-expressed ALK (Homo sapiens, UniProt Q9UM73).
T1 construct: host or cells: baculovirus expression system
Nature of the assay: ALK Kinase Assay (ELISA-type, time-resolved fluorescence). The class given is biochemical. As to conditions: ALK kinase inhibition, 1 μM ATP; read-out: ALK Activity. In short, it runs like this: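 Plates coated with phospholipase C-γ substrate (10 μg/mL in TBS); reaction started with 30 ng/ml ALK and run 15 min at 37° C. Phosphorylated substrate detected with Eu-N1-labeled PT66 antibody. IC50 from sigmoidal variable-slope fit of percent inhibition vs log concentration.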

The target in assay [2] is T2, c-Met (cytoplasmic domain) (Homo sapiens, UniProt P08581).
T2 construct: 10 ng/mL c-Met (cytoplasmic domain, Invitrogen Corporation #PV3143); purchased Invitrogen Corporation PV3143
T2 sequence (P08581 956-1390 limits assumed): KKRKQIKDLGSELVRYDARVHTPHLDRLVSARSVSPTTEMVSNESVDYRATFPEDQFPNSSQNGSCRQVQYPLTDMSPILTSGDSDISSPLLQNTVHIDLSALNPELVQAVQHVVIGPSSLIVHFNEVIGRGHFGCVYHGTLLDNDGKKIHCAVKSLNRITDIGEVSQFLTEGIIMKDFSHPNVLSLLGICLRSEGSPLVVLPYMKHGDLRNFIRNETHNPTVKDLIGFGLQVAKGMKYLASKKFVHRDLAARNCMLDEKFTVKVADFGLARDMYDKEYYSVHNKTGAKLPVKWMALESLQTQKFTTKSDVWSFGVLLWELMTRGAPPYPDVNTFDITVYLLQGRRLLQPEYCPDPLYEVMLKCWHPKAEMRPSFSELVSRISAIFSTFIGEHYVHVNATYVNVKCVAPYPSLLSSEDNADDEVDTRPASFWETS
The experiment in a line: c-Met Kinase Assay (same methods as for ALK, with modifications). It counts as biochemical. The following applies: c-Met kinase inhibition, 1 μM ATP; read-out: cMet Activity. In short, it runs like this: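 Europium-labeled PT66 antibody (Eu-N1) detects substrate phosphorylation on wells coated with phospholipase C-γ at 10 μg/mL. The kinase, the cytoplasmic domain of c-Met at 10 ng/mL, starts the reaction, which proceeds 15 minutes at 37° C.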

T1 sequence (Q9UM73 19-1620): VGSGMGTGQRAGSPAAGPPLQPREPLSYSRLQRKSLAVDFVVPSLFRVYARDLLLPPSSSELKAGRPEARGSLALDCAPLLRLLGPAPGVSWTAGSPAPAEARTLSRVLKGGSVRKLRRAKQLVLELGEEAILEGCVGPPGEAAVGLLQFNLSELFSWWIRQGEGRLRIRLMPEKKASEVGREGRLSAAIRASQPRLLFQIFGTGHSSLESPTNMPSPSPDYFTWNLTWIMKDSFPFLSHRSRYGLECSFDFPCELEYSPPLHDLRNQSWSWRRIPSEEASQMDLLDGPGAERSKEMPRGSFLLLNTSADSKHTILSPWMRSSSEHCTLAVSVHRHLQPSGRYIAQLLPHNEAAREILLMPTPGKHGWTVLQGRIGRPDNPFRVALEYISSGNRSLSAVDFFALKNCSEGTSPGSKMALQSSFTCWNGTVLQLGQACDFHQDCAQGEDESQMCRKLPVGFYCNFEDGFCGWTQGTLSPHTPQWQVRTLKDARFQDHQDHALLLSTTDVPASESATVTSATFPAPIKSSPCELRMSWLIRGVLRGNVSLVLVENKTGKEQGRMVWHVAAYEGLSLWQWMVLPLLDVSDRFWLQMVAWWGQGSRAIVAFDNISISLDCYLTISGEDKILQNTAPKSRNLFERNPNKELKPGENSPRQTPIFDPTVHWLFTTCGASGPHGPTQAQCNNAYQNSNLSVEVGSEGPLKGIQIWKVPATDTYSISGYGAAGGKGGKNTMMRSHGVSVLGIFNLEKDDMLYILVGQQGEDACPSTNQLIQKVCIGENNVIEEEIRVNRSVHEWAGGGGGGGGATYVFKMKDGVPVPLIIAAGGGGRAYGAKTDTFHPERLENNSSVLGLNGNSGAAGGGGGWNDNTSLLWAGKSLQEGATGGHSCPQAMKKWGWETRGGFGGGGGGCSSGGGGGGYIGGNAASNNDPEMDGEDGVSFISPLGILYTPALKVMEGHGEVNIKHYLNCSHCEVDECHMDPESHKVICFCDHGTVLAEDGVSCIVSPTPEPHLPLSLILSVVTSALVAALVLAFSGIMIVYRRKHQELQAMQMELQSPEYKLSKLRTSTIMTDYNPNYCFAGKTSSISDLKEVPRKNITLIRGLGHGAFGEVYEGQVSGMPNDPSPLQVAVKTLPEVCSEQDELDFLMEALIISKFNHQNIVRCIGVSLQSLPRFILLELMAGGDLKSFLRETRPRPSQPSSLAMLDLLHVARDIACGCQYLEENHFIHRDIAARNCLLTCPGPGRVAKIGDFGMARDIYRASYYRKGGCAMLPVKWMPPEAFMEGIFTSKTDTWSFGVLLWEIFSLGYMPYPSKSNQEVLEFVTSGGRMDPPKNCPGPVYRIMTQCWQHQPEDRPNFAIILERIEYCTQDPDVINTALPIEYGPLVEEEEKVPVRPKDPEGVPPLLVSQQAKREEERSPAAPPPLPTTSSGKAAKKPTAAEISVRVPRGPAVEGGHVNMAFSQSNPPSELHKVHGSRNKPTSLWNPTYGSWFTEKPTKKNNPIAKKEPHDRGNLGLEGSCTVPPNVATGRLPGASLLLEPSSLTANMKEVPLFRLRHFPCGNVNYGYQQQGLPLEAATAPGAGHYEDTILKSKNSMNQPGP

On to `Cc1cccc(C(N)=O)c1Nc1nc(Nc2ccc3c(c2)N(C(C)C)C(=O)CCC3)ncc1Cl` [Example 1475, 2-[5-Chloro-2-(1-isopropyl-2-oxo-2,3,4,5-tetrahydro-1H-benzo[b]azepin-8-ylamino)-pyrimidin-4-ylamino]-3-methyl-benzamide], for which the IC50 in assay [1] is 100 to 1000 nM; in assay [2], more than 10000 nM.
With `Cc1cccc(C(N)=O)c1Nc1nc(Nc2ccc3c(c2)C(C)(C)CCC(=O)N3)ncc1Cl` [Example 1476, 2-[5-Chloro-2-(5,5-dimethyl-2-oxo-2,3,4,5-tetrahydro-1H-benzo[b]azepin-7-ylamino)-pyrimidin-4-ylamino]-3-methyl-benzamide], the values for the IC50 in assay [1] and in assay [2] were 100 to 1000 nM and 1000 to 10000 nM, respectively.
The like results for `CNC(=O)c1sccc1Nc1nc(Nc2ccc3c(c2)NC(=O)CCC3)ncc1Cl` [Example 1477, 3-[5-Chloro-2-(2-oxo-2,3,4,5-tetrahydro-1H-benzo[b]azepin-8-ylamino)-pyrimidin-4-ylamino]-thiophene-2-carboxylic acid methylamide] were, in that order, 100 to 1000 nM and 100 to 1000 nM.
`CNC(=O)c1sccc1Nc1nc(Nc2ccc3c(c2)N(CCOC)C(=O)CCC3)ncc1Cl` [Example 1478, 3-{5-Chloro-2-[1-(2-methoxy-ethyl)-2-oxo-2,3,4,5-tetrahydro-1H-benzo[b]azepin-8-ylamino]-pyrimidin-4-ylamino}-thiophene-2-carboxylic acid methylamide]: the IC50 was 100 to 1000 nM in assay [1] and less than 100 nM in assay [2].
The like results for `CNC(=O)c1ccc2c(c1Nc1nc(Nc3ccc4c(c3)CCCC(=O)N4C)ncc1Cl)OCO2` [Example 1479, 4-[5-Chloro-2-(1-methyl-2-oxo-2,3,4,5-tetrahydro-1H-benzo[b]azepin-7-ylamino)-pyrimidin-4-ylamino]-benzo[1,3]dioxole-5-carboxylic acid methyl amide] were, in that order, 100 to 1000 nM and 1000 to 10000 nM.
For the compound `CNC(=O)c1ccc2c(c1Nc1nc(Nc3ccc4c(c3)CCN(CCOC)CC4)ncc1Cl)OCO2` [Example 1480, 4-{5-Chloro-2-[3-(2-methoxy-ethyl)-2,3,4,5-tetrahydro-1H-benzo[d]azepin-7-ylamino]-pyrimidin-4-ylamino}-benzo[1,3]dioxole-5-carboxylic acid methylamide], the IC50 in assay [1] was 100 to 1000 nM; in assay [2], 1000 to 10000 nM.
The like results for `CNC(=O)c1ccc2c(c1Nc1nc(Nc3ccc4c(c3)NC(=O)CCC4(C)C)ncc1Cl)OCO2` [Example 1481, 4-[5-Chloro-2-(5,5-dimethyl-2-oxo-2,3,4,5-tetrahydro-1H-benzo[b]azepin-8-ylamino)-pyrimidin-4-ylamino]-benzo[1,3]dioxole-5-carboxylic acid methyl amide] were, in that order, 100 to 1000 nM and 100 to 1000 nM.
Take `CNC(=O)c1ccc2c(c1Nc1nc(Nc3ccc4c(c3)NC(=O)CCC4)ncc1Cl)OCO2` [Example 1482, 4-[5-Chloro-2-(2-oxo-2,3,4,5-tetrahydro-1H-benzo[b]azepin-8-ylamino)-pyrimidin-4-ylamino]-benzo[1,3]dioxole-5-carboxylic acid methylamide]: the IC50 was 100 to 1000 nM in assay [1] and 1000 to 10000 nM in assay [2].
The like results for `CN1CCN(C2CCN(C3CCc4ccc(Nc5ncc(Cl)c(Nc6c(F)cccc6OCC#N)n5)cc4CC3)CC2)CC1` (stereo not drawn) [Example 1483, [2-(5-Chloro-2-{7-[4-(4-methyl-piperazin-1-yl)-piperidin-1-yl]-6,7,8,9-tetrahydro-5H-benzocyclohepten-2-ylamino}-pyrimidin-4-ylamino)-3-fluoro-phenoxy]-acetonitrile] were, in that order, less than 100 nM and less than 100 nM.
As to `CNC(=O)c1ccsc1Nc1nc(Nc2ccc3c(c2)CCN(CCOC)CC3)ncc1Cl` [Example 1484, 2-{5-Chloro-2-[3-(2-methoxy-ethyl)-2,3,4,5-tetrahydro-1H-benzo[d]azepin-7-ylamino]-pyrimidin-4-ylamino}-thiophene-3-carboxylic acid methylamide], the IC50 in assay [1] and in assay [2] was 100 to 1000 nM each time.
On to `CNC(=O)c1ccsc1Nc1nc(Nc2ccc3c(c2)NC(=O)CCC3)ncc1Cl` [Example 1485, 2-[5-Chloro-2-(2-oxo-2,3,4,5-tetrahydro-1H-benzo[b]azepin-8-ylamino)-pyrimidin-4-ylamino]-thiophene-3-carboxylic acid methylamide], for which the IC50 in assay [1] lay in the range of 1000 to 10000 nM; in assay [2] it was 100 to 1000 nM.
Turning to `CNC(=O)c1ccsc1Nc1nc(Nc2ccc3c(c2)NC(=O)CCC3(C)C)ncc1Cl` [Example 1486, 2-[5-Chloro-2-(5,5-dimethyl-2-oxo-2,3,4,5-tetrahydro-1H-benzo[b]azepin-8-ylamino)-pyrimidin-4-ylamino]-thiophene-3-carboxylic acid methyl amide], the IC50 in assay [1] and in assay [2] was 1000 to 10000 nM each time.
Regarding `CNC(=O)c1ccsc1Nc1nc(Nc2ccc3c(c2)CCCC(=O)N3C)ncc1Cl` [Example 1487, 2-[5-Chloro-2-(1-methyl-2-oxo-2,3,4,5-tetrahydro-1H-benzo[b]azepin-7-ylamino)-pyrimidin-4-ylamino]-thiophene-3-carboxylic acid methylamide], the IC50 in assay [1] and in assay [2] was 100 to 1000 nM each time.
Regarding `CNC(=O)c1cccc(Cl)c1Nc1nc(Nc2ccc3c(c2)CCC(N2CCC(N4CCN(C)CC4)CC2)CC3)ncc1Cl` (stereo not drawn) [Example 1488, 3-Chloro-2-(5-chloro-2-{7-[4-(4-methyl-piperazin-1-yl)-piperidin-1-yl]-6,7,8,9-tetrahydro-5H-benzocyclohepten-2-ylamino}-pyrimidin-4-ylamino)-N-methyl-benzamide], the figures for the IC50 in assay [1] and in assay [2] were 100 to 1000 nM and less than 100 nM, respectively.
The like results for `CNC(=O)c1cccc(F)c1Nc1nc(Nc2ccc3c(c2)N(C(C)=O)CCCC3)ncc1Cl` [Example 1489, 2-[2-(1-Acetyl-2,3,4,5-tetrahydro-1H-benzo[b]azepin-8-ylamino)-5-chloro-pyrimidin-4-ylamino]-3-fluoro-N-methyl-benzamide] were, in that order, 100 to 1000 nM and less than 100 nM.
For `C#CCNC(=O)c1cccc(F)c1Nc1nc(Nc2ccc3c(c2)N(C(C)=O)CCCC3)ncc1Cl` [Example 1490, 2-[2-(1-Acetyl-2,3,4,5-tetrahydro-1H-benzo[b]azepin-8-ylamino)-5-chloro-pyrimidin-4-ylamino]-3-fluoro-N-prop-2-ynyl-benzamide], the IC50 was 100 to 1000 nM in assay [1] and less than 100 nM in assay [2].
The like results for `CNC(=O)c1cccc(F)c1Nc1nc(Nc2ccc3c(c2)NC(=O)C(N2CCOCC2)CC3)ncc1Cl` (stereo not drawn) [Example 1491, 2-[5-Chloro-2-(3-morpholin-4-yl-2-oxo-2,3,4,5-tetrahydro-1H-benzo[b]azepin-8-ylamino)-pyrimidin-4-ylamino]-3-fluoro-N-methyl-benzamide] were, in that order, less than 100 nM and less than 100 nM.
The like results for `COCCN1CCc2ccc(Nc3ncc(Cl)c(Nc4ccccc4S(=O)(=O)N4CCC(O)C4)n3)cc2CC1` (stereo not drawn) [Example 1492, 1-(2-{5-Chloro-2-[3-(2-methoxy-ethyl)-2,3,4,5-tetrahydro-1H-benzo[d]azepin-7-ylamino]-pyrimidin-4-ylamino}-benzenesulfonyl)-pyrrolidin-3-ol] were, in that order, less than 100 nM and less than 100 nM.

Source of the values: patent publication US8148391B2 (Cephalon, Inc., priority 2006, dated 2012).
